This note sets out measurements from PubChem BioAssay AID588780 (Sanford-Burnham Center for Chemical Genomics, 2011).

Structures are written as SMILES. Calls of active or inactive are those of the source.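 How the source made its calls: active means compounds whose fitted half-maximal concentration in the cell-protection dose series is at or below a set limit; inactive means the rest.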 A value given as a limit tells only on which side of the number the result lay.

The experiment relates to H9c2 cardiomyocytes, 2-deoxyglucose stress, ATP luminescence, 2 h. The experiment can be described thus: H9c2 cell survival under 2-deoxyglucose stress – uHTS hits, dose response (AID 588780).
One may read the IC50 as the concentration that inhibits the measured activity by half. For the compound `O=c1[nH]n(CC2COC3(CCCCC3)O2)c(=O)c2ccccc12` (centres undefined), the IC50 is > 79 µM (inactive). Regarding `Cc1ccc(C(=O)N/N=C\c2ccc(-c3ccc(Cl)cc3)o2)cn1`, the IC50 is 9.3 µM. To `CC(OC(=O)Cn1[nH]c(=O)c2ccccc2c1=O)C(=O)Nc1ccc(F)cc1Cl` (centres undefined) belongs > 79 µM (inactive). As to `CC(C)(C)C(=O)Nc1ccc(C(=O)N/N=C/c2ccccc2OC(=O)c2ccccc2)cc1`, the IC50 is > 79 µM (inactive). `CCOc1cc(-c2cc(-c3ccc(N)cc3)nc(N)c2C#N)ccc1O`: the IC50 is 12.3 µM. To `COc1ccccc1C(=O)COC(=O)Cn1[nH]c(=O)c2ccccc2c1=O` belongs > 79 µM (inactive). For `CCn1nc(C(=O)Nc2nc(-c3ccccn3)cs2)c2ccccc2c1=O`, the IC50 was > 79 µM (inactive).

With `COCc1c(C(=O)Nc2ccc3nc(N4CCOCC4)sc3c2)oc2ccccc12`, the IC50 is > 79 µM (inactive). For the compound `CC(=O)Nc1cc(-c2ccc(C(=O)N3CCOCC3)cc2)cn2c(-c3ccc(C(C)=O)cc3)cnc12`, the IC50 is 25.3 µM. To `COc1ccc(C(=O)Nc2cccc(/C(C)=N/NC(=O)c3ccc([N+](=O)[O-])c(C)c3)c2)cc1OC` belongs > 79 µM (inactive); to `O=C(Nc1nc(-c2ccccn2)cs1)c1ccc(-c2ccccc2F)o1`, > 79 µM (inactive); to `O=C(CCc1nc2ccccc2c(=O)[nH]1)NNC(=O)c1ccccc1Cl`, > 79 µM (inactive). Turning to `CCOC(=O)c1c(C)[nH]c(C(=O)COc2ccc3ccc(=O)oc3c2)c1C`, the IC50 is > 79 µM (inactive). As for `CC(OC(=O)Cc1n[nH]c(=O)c2ccccc12)C(=O)Nc1cc(Cl)cc(Cl)c1` (centres undefined), the IC50 is 22.7 µM. With `Nc1c(C(=O)N/N=C/c2cccnc2)oc2nc(-c3ccco3)cc(-c3ccco3)c12`, the IC50 was > 79 µM (inactive). The result for `O=c1cc(COc2ncnc3c(Cl)cc(Cl)cc23)nc2sccn12` reads > 79 µM (inactive).

In the case of `COC(=O)c1cc2c(C)c(C)c3ccccn3c-2c1C(=O)OC`, the IC50 is > 79 µM (inactive).

As for `CCOC(=O)[C@H]1[C@H]2COc3ccc(Br)cc3[C@@H]2N2C(=O)c3cc(OC)c(OC)cc3NC(=O)[C@@]12C`, the IC50 is 40 µM (inactive). With `Cc1ccc(-c2nnc3ccc(SCC(=O)N4CCCc5ccccc54)nn23)cc1`, the IC50 was > 79 µM (inactive). As to `Cn1c(=O)c2c(nc(NCc3ccc4c(c3)OCO4)n2C)n(C)c1=O`, the IC50 is > 79 µM (inactive). The result for `O=C(Nc1cccc(N=Cc2cc(Cl)cc(Br)c2O)c1)c1ccco1` reads 26.5 µM; that for `COc1ccccc1NC(=O)COc1cccc2c1CCNC2=O`, > 79 µM (inactive); that for `O=C(N/N=C/c1ccccn1)c1cc(C2CC2)nc2ccccc12`, > 79 µM (inactive). To `CCCN(CC(=O)Nc1ccccc1C)C(=O)Cc1n[nH]c(=O)c2ccccc12` belongs > 79 µM (inactive). In the case of `Cc1ccc(-c2n[nH]c(=O)c3ccccc23)cc1S(=O)(=O)NCCN1CCOCC1`, the IC50 is > 79 µM (inactive). As to `Cc1ccc2nsnc2c1S(=O)(=O)N(Cc1ccco1)Cc1cc2cccc(C)c2[nH]c1=O`, the IC50 was 25.8 µM. To `Cc1cccc(N=Cc2cc(Br)cc(Cl)c2O)c1` belongs 39.6 µM (inactive).

Consider `Cc1ccc(CN(C(=O)CNC(=O)c2cccs2)C(C(=O)NCC2CCCO2)c2ccccc2)cc1` (centres undefined), for which the half-maximal inhibitory concentration (IC50) was 14.1 µM. The result for `COc1ccc(NCc2cc3ccccc3[nH]c2=O)cc1` reads > 79 µM (inactive); that for `CCOc1ccc2[nH]c(=O)c(CN(CCO)C(c3nnnn3C3CCCCC3)C(C)C)cc2c1` (centres undefined), > 79 µM (inactive).

As to `CCOc1ccccc1C(=O)N/N=C/c1cccc2cccnc12`, the IC50 is > 79 µM (inactive). `CNC(=O)COC(=O)/C=C/c1cn(-c2ccccc2)nc1-c1ccc(C)o1`: the IC50 was 11.6 µM. For `CN1CCC(N(C)C(=O)CCc2nc3ccccc3c(=O)[nH]2)CC1`, the IC50 is > 79 µM (inactive). To `CS/C(=N\S(=O)(=O)c1ccccc1)c1ccccc1` belongs 41.3 µM (inactive).

As for `COc1ccc(NC(=O)c2cc(-c3ccccn3)nc3ccccc23)cc1S(=O)(=O)N(C)C`, the IC50 was > 79 µM (inactive). The result for `COc1ccc(Cl)cc1NC(=O)CCS(=O)(=O)c1cc2c(cc1C)NC(=O)CO2` reads 21.5 µM; that for `NC(=O)c1cccc(Nc2nc(C(N)CCc3ccccc3)cs2)n1` (centres undefined), > 79 µM (inactive).

Consider `COc1ccc(Br)cc1C(=O)Nc1cccc(NC(=O)c2ccco2)c1`, for which the IC50 was > 79 µM (inactive). The result for `COc1ccc(C(=O)NN/C=C/C(=O)c2ccc(Br)cc2)cc1` reads > 79 µM (inactive); that for `COC(=O)c1ccc(OCC(=O)Nc2ccccc2C(=O)NC2CC2)cc1`, 10.6 µM.

In the case of `COc1cc(C(=O)N/N=C/c2ccc(OC(=O)c3ccccc3Cl)cc2)ccc1O`, the IC50 was > 79 µM (inactive).

For `CC(=O)Nc1cccc(-c2cc(NC=O)c3ncc(-c4cccc(C(C)=O)c4)n3c2)c1`, the IC50 is > 79 µM (inactive). The result for `CC(=O)Nc1cc(-c2ccc(C(=O)NC3CC3)cc2)cn2c(-c3cccc(C(C)=O)c3)cnc12` reads > 79 µM (inactive). As to `COc1cccc(-c2nnc(NC(=O)c3ccc(Cl)s3)o2)c1`, the IC50 was > 79 µM (inactive). For `O=c1cc(CSc2ccc([N+](=O)[O-])cc2)nc2sccn12`, the IC50 was > 79 µM (inactive). To `CCOC(=O)CSc1nnc(CSc2nc3ccccc3c(=O)[nH]2)n1-c1ccccc1` belongs > 79 µM (inactive). To `COc1ccc(OC)c(/C=N/Nc2nncn2/N=C/c2cc(OC)ccc2OC)c1` belongs > 79 µM (inactive); to `COC(=O)[C@@]12CCCCN1[C@H](c1ccc(-c3cc(C(C)=O)cs3)cc1)[C@H]1C(=O)N(C)C(=O)[C@H]12`, > 79 µM (inactive).

Consider `CSc1nc2sc3c(c2c(=O)[nH]1)CCC3`, for which the IC50 is > 79 µM (inactive).

As for `Cc1cc(CNC(=O)COC(=O)Cn2[nH]c(=O)c3ccccc3c2=O)cc(C)c1O`, the IC50 is 15.4 µM. To `Cc1cc(O)c(C=Nc2ccc(N3CCOCC3)cc2)c(C)c1Cl` belongs > 79 µM (inactive); to `Cc1sc2nc(CSCC(=O)N(C)CC(=O)Nc3ccc(F)cc3)[nH]c(=O)c2c1C`, > 79 µM (inactive); to `COc1ccc(Nc2nnc(SCc3cc(=O)n4ccsc4n3)s2)cc1`, 14.1 µM. Regarding `O=C1OCCN1C(=O)[C@H]1[C@H](c2ccc([N+](=O)[O-])cc2)C(c2ccccc2)=NN1c1ccc(Br)cc1`, the IC50 was > 79 µM (inactive). On to `CC(=O)Nc1ccc(S(=O)(=O)N(Cc2ccco2)Cc2cc3ccccc3[nH]c2=O)cc1`, for which the IC50 was > 79 µM (inactive). On to `O=c1c2ccccc2nc(CSc2ncnc3nc[nH]c23)n1-c1ccc(Cl)c(Cl)c1`, for which the IC50 is > 79 µM (inactive).

As to `CCOC(=O)c1cc2c(=O)n3cccc(C)c3nc2n(CCCOC)c1=NC(=O)c1cccnc1`, the IC50 was > 79 µM (inactive). To `COC(=O)c1ccccc1NC(=O)c1ccc2nccnc2c1` belongs > 79 µM (inactive); to `COC(=O)c1cccc(Nc2nc(-c3cccnc3)nc3ccccc23)c1`, > 79 µM (inactive); to `CCN(c1ccc(NC(=O)COC(=O)c2ccc([N+](=O)[O-])o2)cc1)C(C)C`, > 79 µM (inactive). To `CCc1nc2ccccc2c(C(=O)OCc2nc3ccccc3c(=O)[nH]2)c1C` belongs 23.1 µM; to `NC(=O)c1nsc(C(=O)N(CCc2ccccc2)C(C(=O)NC2CCCC2)c2ccco2)c1N` (centres undefined), 22.4 µM; to `COc1ccc(/C=N\NC(=O)c2c(C)nc3ccc(Br)cn23)cc1`, > 79 µM (inactive). To `O=C(c1cc2nc(-c3ccccc3)cc(-c3ccccc3)n2n1)N1CCN(C(=O)c2ccco2)CC1` belongs 9.32 µM; to `CN(CC1COc2ccccc2O1)c1nc(-c2cccnc2)nc2ccccc12` (centres undefined), > 79 µM (inactive).

As to `COc1cccc(C(=O)Nc2cccc(-c3nnc(-c4ccco4)o3)c2)c1`, the IC50 was > 79 µM (inactive). For the compound `COc1ccc(CCNC(=O)c2cc(C(=O)c3cc(C)ccc3O)cn(CCc3ccc(OC)cc3)c2=O)cc1`, the IC50 was > 79 µM (inactive). For `CCCn1c(SC(C(=O)Nc2cccc(OC)c2)c2ccccc2)nc2ccccc2c1=O` (centres undefined), the IC50 is > 79 µM (inactive). To `Cc1ccc(-c2csc(N3CCC[C@@H]3C(=O)NCCn3c(-c4ccncc4)nc4ccccc43)n2)cc1` belongs > 79 µM (inactive). Turning to `Cc1ccc(C(=O)Nc2cccc(C(F)(F)F)c2)cc1NC(=O)c1csc(-c2ccncc2)n1`, the IC50 is > 79 µM (inactive).

With `Cc1sc2nc(CSCC(=O)N(CCC#N)c3ccccc3F)[nH]c(=O)c2c1C`, the IC50 is 27.9 µM.

For the compound `COc1cccc(Nc2nc3ccccc3n3cnnc23)c1`, the IC50 was 12.5 µM. Consider `COc1cccc(-c2cnc3c(NC(C)=O)cc(-c4cc(OC)c(OC)c(OC)c4)cn23)c1`, for which the IC50 is > 79 µM (inactive).

Regarding `COc1ccc(-c2cc3nc(-c4ccccc4)cc(N4CCN(C(C)=O)CC4)n3n2)cc1`, the IC50 was 12 µM.

As for `O=C(NCc1n[nH]c(=O)c2ccccc12)C1CC(=O)N(c2ccccc2)C1` (centres undefined), the IC50 is 43 µM (inactive). To `COc1nnc(-c2ccc(C)c(S(=O)(=O)NCCO)c2)c2ccccc12` belongs > 79 µM (inactive); to `COc1ccc(-c2cc(=O)c3ccccc3[nH]2)cc1`, 65 µM (inactive); to `CCc1ccc(C(C)NC(=O)c2cc(C)oc2C)cc1` (centres undefined), > 79 µM (inactive). To `Cc1ccccc1N(C(=O)c1snc(C(N)=O)c1N)C(C(=O)NCc1ccccc1)c1ccc(O)cc1` (centres undefined) belongs 17.8 µM; to `CCCc1nc2ccccc2c(C(=O)OCc2nnc(-c3cc(OC)c(OC)c(OC)c3)o2)c1CC`, 11 µM; to `CCn1nc(C(=O)NNC(=O)c2cc(Cl)ccc2OC)c2ccccc2c1=O`, 74 µM (inactive). Consider `CCOC(=O)COc1cc(OCC(=O)OCC)c2c3c(c(=O)oc2c1)CCCC3`, for which the IC50 was 16.4 µM. The result for `Cc1cc(-c2nn3c(-c4ccccc4)nnc3s2)c2ccccc2n1` reads > 79 µM (inactive). Regarding `CCCn1c(=O)c(C(=O)NCCc2ccc(Cl)cc2)c(O)c2ccccc21`, the IC50 is 11 µM.
